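GI50 = concentration required for 50% inhibition of growth. TGI: concentration producing complete growth inhibition.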
Key:
Assay in all cases: growth of human tumour cells (NCI), 384-well format
786-0 renal = system: 786-0 renal
A498 renal = system: A498 renal
A549 NSCLC = system: A549 NSCLC
ACHN renal = system: ACHN renal
BT-549 breast = system: BT-549 breast
CAKI-1 renal = system: CAKI-1 renal
CCRF-CEM leukemia = system: CCRF-CEM leukemia
DU-145 prostate = system: DU-145 prostate
EKVX NSCLC = system: EKVX NSCLC
HCT-116 colon = system: HCT-116 colon
HCT-15 colon = system: HCT-15 colon
HL-60(TB) leukemia = system: HL-60(TB) leukemia
HOP-62 NSCLC = system: HOP-62 NSCLC
HOP-92 NSCLC = system: HOP-92 NSCLC
HS 578T breast = system: HS 578T breast
HT29 colon = system: HT29 colon
IGROV1 ovarian = system: IGROV1 ovarian
K-562 leukemia = system: K-562 leukemia
KM12 colon = system: KM12 colon
LOX IMVI melanoma = system: LOX IMVI melanoma
M14 melanoma = system: M14 melanoma
MALME-3M melanoma = system: MALME-3M melanoma
MCF7 breast = system: MCF7 breast
MDA-MB-231 breast = system: MDA-MB-231 breast
MDA-MB-435 melanoma = system: MDA-MB-435 melanoma
MDA-MB-468 breast = system: MDA-MB-468 breast
MOLT-4 leukemia = system: MOLT-4 leukemia
NCI-H226 lung = system: NCI-H226 lung
NCI-H23 lung = system: NCI-H23 lung
NCI-H322M lung = system: NCI-H322M lung
NCI-H522 lung = system: NCI-H522 lung
NCI/ADR-RES ovarian = system: NCI/ADR-RES ovarian
OVCAR-3 ovarian = system: OVCAR-3 ovarian
OVCAR-4 ovarian = system: OVCAR-4 ovarian
OVCAR-5 ovarian = system: OVCAR-5 ovarian
OVCAR-8 ovarian = system: OVCAR-8 ovarian
PC-3 prostate = system: PC-3 prostate
RPMI-8226 leukemia = system: RPMI-8226 leukemia
RXF 393 renal = system: RXF 393 renal
SF-268 CNS = system: SF-268 CNS
SF-295 CNS = system: SF-295 CNS
SF-539 CNS = system: SF-539 CNS
SK-MEL-2 melanoma = system: SK-MEL-2 melanoma
SK-MEL-28 melanoma = system: SK-MEL-28 melanoma
SK-OV-3 ovarian = system: SK-OV-3 ovarian
SN12C renal = system: SN12C renal
SNB-19 CNS = system: SNB-19 CNS
SNB-75 CNS = system: SNB-75 CNS
SW-620 colon = system: SW-620 colon
T-47D breast = system: T-47D breast
TK-10 renal = system: TK-10 renal
U251 glioblastoma = system: U251 glioblastoma
UACC-257 melanoma = system: UACC-257 melanoma
UACC-62 melanoma = system: UACC-62 melanoma
UO-31 renal = system: UO-31 renal

Nc1nc(=S)c2[nH]cnc2[nH]1
GI50 ([…]-0 renal): 0.469 µM
TGI (786-0 renal): 12 µM
GI50 (A498 renal): 4.85 µM
TGI (A498 renal): 28.7 µM
GI50 (A549 NSCLC): 2.1 µM
TGI (A549 NSCLC): 7.53 µM
GI50 (ACHN renal): 1.52 µM
TGI (ACHN renal): 5.28 µM
GI50 (BT-549 breast): 0.449 µM
TGI (BT-549 breast): 2.31 µM
GI50 (CAKI-1 renal): 0.371 µM
TGI (CAKI-1 renal): 2.62 µM
GI50 (CCRF-CEM leukemia): 0.212 µM
TGI (CCRF-CEM leukemia): 0.383 µM
GI50 (DU-145 prostate): 0.311 µM
TGI (DU-145 prostate): 1.18 µM
GI50 (EKVX NSCLC): 0.544 µM
TGI (EKVX NSCLC): 12.2 µM
GI50 (HCT-116 colon): 0.341 µM
TGI (HCT-116 colon): 7.39 µM
GI50 (HCT-15 colon): 0.988 µM
TGI (HCT-15 colon): 7.18 µM
GI50 (HL-60(TB) leukemia): 0.376 µM
TGI (HL-60(TB) leukemia): 1.1 µM
GI50 (HOP-62 NSCLC): 0.304 µM
TGI (HOP-62 NSCLC): 0.784 µM
GI50 (HOP-92 NSCLC): 0.393 µM
TGI (HOP-92 NSCLC): 25.2 µM
GI50 (HS 578T breast): 1.25 µM
TGI (HS 578T breast): 4.46 µM
GI50 (HT29 colon): 0.906 µM
TGI (HT29 colon): 5.3 µM
GI50 (IGROV1 ovarian): 3.51 µM
TGI (IGROV1 ovarian): 27.7 µM
GI50 (K-562 leukemia): 0.366 µM
TGI (K-562 leukemia): 1.21 µM
GI50 (KM12 colon): 0.917 µM
TGI (KM12 colon): 4.9 µM
GI50 (LOX IMVI melanoma): 0.206 µM
TGI (LOX IMVI melanoma): 0.426 µM
GI50 (M14 melanoma): 0.379 µM
TGI (M14 melanoma): 4.41 µM
GI50 (MALME-3M melanoma): 0.718 µM
TGI (MALME-3M melanoma): 3.47 µM
GI50 (MCF7 breast): 0.297 µM
TGI (MCF7 breast): 1.33 µM
GI50 (MDA-MB-231 breast): 0.283 µM
TGI (MDA-MB-231 breast): 0.918 µM
GI50 (MDA-MB-435 melanoma): 1.09 µM
TGI (MDA-MB-435 melanoma): 4.73 µM
GI50 (MDA-MB-468 breast): 0.238 µM
TGI (MDA-MB-468 breast): 0.565 µM
GI50 (MOLT-4 leukemia): 0.112 µM
TGI (MOLT-4 leukemia): 0.248 µM
GI50 (NCI-H226 lung): 0.36 µM
TGI (NCI-H226 lung): 3.92 µM
GI50 (NCI-H23 lung): 0.377 µM
TGI (NCI-H23 lung): 1.69 µM
GI50 (NCI-H322M lung): 2.21 µM
TGI (NCI-H322M lung): 21.2 µM
GI50 (NCI-H522 lung): 1.03 µM
TGI (NCI-H522 lung): 2.84 µM
GI50 (NCI/ADR-RES ovarian): 0.375 µM
TGI (NCI/ADR-RES ovarian): 1.52 µM
GI50 (OVCAR-3 ovarian): 0.306 µM
TGI (OVCAR-3 ovarian): 1.03 µM
GI50 (OVCAR-4 ovarian): 1.05 µM
TGI (OVCAR-4 ovarian): 7.19 µM
GI50 (OVCAR-5 ovarian): 0.199 µM
TGI (OVCAR-5 ovarian): 0.465 µM
GI50 (OVCAR-8 ovarian): 0.362 µM
TGI (OVCAR-8 ovarian): 1.56 µM
GI50 (PC-3 prostate): 1.34 µM
TGI (PC-3 prostate): 14.5 µM
GI50 (RPMI-8226 leukemia): 0.139 µM
TGI (RPMI-8226 leukemia): 0.296 µM
GI50 (RXF 393 renal): 0.728 µM
TGI (RXF 393 renal): 3.51 µM
GI50 (SF-268 CNS): 0.428 µM
TGI (SF-268 CNS): 2.4 µM
GI50 (SF-295 CNS): 0.248 µM
TGI (SF-295 CNS): 0.735 µM
GI50 (SF-539 CNS): 0.686 µM
TGI (SF-539 CNS): 7.92 µM
GI50 (SK-MEL-2 melanoma): 3.32 µM
TGI (SK-MEL-2 melanoma): 7.34 µM
GI50 (SK-MEL-28 melanoma): 4.57 µM
TGI (SK-MEL-28 melanoma): 26.7 µM
GI50 (SK-OV-3 ovarian): 0.541 µM
TGI (SK-OV-3 ovarian): 9.85 µM
GI50 (SN12C renal): 1.44 µM
TGI (SN12C renal): 8.29 µM
GI50 (SNB-19 CNS): 28 µM
GI50 (SNB-75 CNS): 0.353 µM
TGI (SNB-75 CNS): 13.2 µM
GI50 (SW-620 colon): 3.02 µM
TGI (SW-620 colon): 23.3 µM
GI50 (T-47D breast): 0.715 µM
TGI (T-47D breast): 15.5 µM
GI50 (TK-10 renal): 0.251 µM
TGI (TK-10 renal): 0.625 µM
GI50 (U251 glioblastoma): 3.4 µM
TGI (U251 glioblastoma): 83.3 µM
GI50 (UACC-257 melanoma): 1.13 µM
TGI (UACC-257 melanoma): 8.82 µM
GI50 (UACC-62 melanoma): 0.366 µM
TGI (UACC-62 melanoma): 1.69 µM
GI50 (UO-31 renal): 1.5 µM
TGI (UO-31 renal): 11.8 µM
